According to publication PMC12525849, “In Silico and RP HPLC Studies of Biologically Active 1,3,4-Thiadiazol-2-yl)-benzene-1,3-diols” (Molecules, 2025):
Read-outs that look alike come from different tables or passages of the source.

Key:
[1] = Comparison of retention (log kw) on RP-18, RP-8, Chol, IAM and BPh stationary phases; type: physicochemical; settings: for retention, in words: investigated stationary phases
Source text: (§1) The retention factors of considered compounds were investigated using five different bonded stationary phases: octadecyl (RP-18), octyl (RP-8), cholesterol (Chol), phosphatidylcholine (IAM), and biphenyl (BPh). Water buffer–methanol mobile phases with pH 7.4 were used. The content of MeOH was varying and it depended on the type of compound and the stationary phase.
The lowest log kw values can be observed for RP-18 and IAM stationary phases. For most compounds, log kw IAM values have similar values or are lower than those obtained for C18 stationary phase. […] On the octadecyl column the main contribution to retention comes from almost entirely hydrophobic interactions, when in the case of IAM phase there are additional mechanisms involved in interactions as ion pairing and hydrogen bonding. They can be either attractive or repulsive in nature. This depends on the structure of compound and pH.
(§2) HPLC measurements for C-18, C-8, IAM, Chol, and BPh phases were carried out using a liquid chromatograph Knauer (Knauer, Berlin, Germany) with a single pump working in isocratic mode, a 20 µL simple injection valve, and a UV–visible detector (Knauer, Berlin, Germany) working at 280 nm at room temperature. The retention time of an unretained solute (t0) was determined by the injection of a small amount of citric acid dissolved in water. The mobile phase flow rate was 1 mL/min (0.35 mL/min for Chol). HPLC columns: C18—Eurosil Bioselect 300 × 4 mm, 5 μm; C8—Waters. Symetry 150 × 4.6 mm, 5 μm, 100 Ǻ; IAM—Rexchrom IAM.PC.DD2 100 × 4.6 mm, 12 μm; Chol—Cogent 4 UDC Cholesterol 150 × 2.1 mm, 4 μm; BPh—Kinetex Biphenyl 150 × 4.6 mm, 5 μm were applied.
(§3) Mobile phase for RP-18, RP-8, Chol, and BPh chromatography was composed using 20 mM acetic buffer/MeOH with respective MeOH concentration ranges (volume fractions: C18—from 0.5 to 0.99; C8—from 0.5 to 0.9; IAM—from 0.15 to 0.5; Chol: from 0.45 to 0.9; BPh: from 0.4 to 0.99) to obtain pH = 7.4. In the case of IAM chromatography, phosphate buffer was used. At least five consecutive retention times for five concentrations per every investigated compound for every chromatographic system were measured. Log k parameter was calculated as log k = log (tr−t0/t0), where tr = the retention time of the analyte; t0 = the retention time of an unretained compound.

[2] = Log D(7.4) determination from RP-18 measurements using a standard curve; type: physicochemical; settings: C18 (RP-18) HPLC column with MeOH-water mobile phase; calculated from standard curve (Equation 3) and log kw C18, pH 7.4
Source text: C-18 chromatography was used to determine the distribution coefficient log D(7.4) of the tested compounds using a standard curve. It was constructed for the reference compounds with known experimental log D(7.4) values and studied chromatographically under the same conditions as the analyzed compounds [44] (Table 4). The obtained log kw values were plotted against the log D(7.4) based on BioLoom Database values taken from Andres et al. (Table S6 in the Supplementary Materials). […] In the case of analogues 7 and 14, these differences are the largest and they constitute about 17% and 13%, respectively (Table 4). This means that the obtained log kw values from the C18/MeOH-water (pH = 7.4) chromatographic system reflect the extraction values of log D(7.4) quite well. […] The analytical standards were purchased from Sigma Aldrich […], Darmstadt, Germany). The obtained log kw values from HPLC C-18 were plotted against the log D(7.4) based on BioLoom Database values taken from Andres et al. (Table S6 in the Supplementary Materials).

[3] = RP HPLC on octadecyl (C-18/RP-18) column, buffer-MeOH pH 7.4, log kw by extrapolation; type: physicochemical; settings: C18 stationary phase; for log kw C-18: MeOH-buffer pH 7.4, extrapolated intercept; for S: slope of log k vs MeOH content, pH 7.4
Source text: as §1
For the tested systems, linear relationships were obtained between the retention coefficient log k and the content of MeOH (%) in the mobile phase expressed by the Snyder–Soczewiński equation:log k = log kw + S (% organic modifier)(2) where: log kw—the intercept; S—the slope of regression curve.
Log kw values were estimated by the extrapolation method. Log kw and S parameters are presented in Figure 3, Table 2, and Tables S1–S5 in the Supplementary Materials. These parameters obtained by C-18, C-8, and IAM chromatography are commonly used as lipophilicity descriptors.
as §2, §3

[4] = cited from earlier work

Row | SMILES | retention, in words [1] | chromatographic logD [2] | log kw C-18 [3] | S [3] | retention / determined lipophilicity, in words ([1]; all investigated stationary phases except IAM) | log D(7.4) Bio Loom ([4]; pH 7.4) | log D(7.4) Bio Loom ([4]; standards used for calibration curve, BioLoom Database values taken from Andres et al. ref 44)
1 | CCCCNc1nnc(-c2cc(Cl)c(O)cc2O)s1 [Compound 17] |  | 2.83 | 2.78 |  |  |  | 
2 | C[C@]12CCC(=O)C=C1CC[C@@H]1[C@@H]2[C@@H](O)C[C@@]2(C)[C@H]1CC[C@]2(O)C(=O)CO [hydrocortisone, reference compound] |  |  | 2.210 |  |  |  | 
3 | Cn1c(=O)c2[nH]cnc2n(C)c1=O [theophylline, reference compound] |  |  | 0.380 |  |  |  | 
4 | c1ccc2ccccc2c1 [naphthalene, reference compound] |  |  | 2.615 |  |  | 3.3 | 
5 | CC(=O)N1CCN(c2ccc(OCC3COC(Cn4ccnc4)(c4ccc(Cl)cc4Cl)O3)cc2)CC1 (stereo not shown) [ketoconazole, reference compound] |  |  | 3.370 |  |  |  | 
6 | CCN(CC)CC(=O)Nc1c(C)cccc1C [lidocaine, reference compound] |  |  | 2.079 |  |  |  | 
7 | Oc1ccc(-c2nnc(COc3ccc(OC(F)(F)F)cc3)s2)c(O)c1 [Compound 18] | strongest retained | 2.97 | 2.879 | −3.883 |  |  | 
8 | CCc1cc(-c2nnc(Nc3ccc(Cl)cc3)s2)c(O)cc1O [Compound 14] | strongest retained | 4.88 | 4.296 | −5.335 |  |  | 
9 | O=C(CCCN1CCC(O)(c2ccc(Cl)cc2)CC1)c1ccc(F)cc1 [haloperidol, reference compound] |  |  | 3.012 |  |  |  | 2.92
10 | Cn1c(=O)c2c(ncn2C)n(C)c1=O [caffeine, reference compound] |  |  | 0.802 |  |  |  | 
11 | Oc1cc(O)c(-c2nnc(Nc3ccc(F)cc3)s2)cc1Cl [Compound 13] |  | 3.14 | 3.005 | −4.173 |  |  | 

Now from value to compound, other results behind:

Row | retention, in words [1] | chromatographic logD [2] | log kw C-18 [3] | S [3] | retention / determined lipophilicity, in words ([1]; all investigated stationary phases except IAM) | SMILES | log D(7.4) Bio Loom ([4]; pH 7.4) | log D(7.4) Bio Loom ([4]; standards used for calibration curve, BioLoom Database values taken from Andres et al. ref 44)
12 | relatively low retention factor values | 2.42 | 2.477 | −3.66 |  | Oc1ccc(-c2nnc(Nc3ccccc3)s2)c(O)c1 [Compound 11] |  | 
13 |  | 3.45 | 3.238 | −4.185 |  | CCOC(=O)c1ccc(Nc2nnc(-c3ccc(O)cc3O)s2)cc1 [Compound 15] |  | 
14 | relatively low retention factor values | 2.47 | 2.512 | −3.432 |  | O=[N+]([O-])c1cccc(-c2nnc(-c3ccc(O)cc3O)s2)c1 [Compound 9] |  | 
15 | relatively low retention factor values | 2.52 | 2.545 | −3.785 |  | COc1cc(-c2nnc(-c3ccc(O)cc3O)s2)ccc1O [Compound 8] |  | 
16 |  | 4.05 | 3.678 | −4.438 |  | Oc1ccc(-c2nnc(-c3ccc(Cl)cc3Cl)s2)c(O)c1 [Compound 5] |  | 
17 |  | 3.11 | 2.986 | −4.168 |  | Cc1ccc(Nc2nnc(-c3ccc(O)cc3O)s2)cc1 [Compound 12] |  | 
18 | strongest retained | 4.06 | 3.69 | −4.696 |  | Oc1ccc(-c2nnc(-c3ccc(C(F)(F)F)cc3)s2)c(O)c1 [Compound 6] |  | 
19 |  | 2.69 | 2.67 | −3.651 |  | Oc1ccc(-c2nnc(-c3ccccc3Cl)s2)c(O)c1 [Compound 4] |  | 
20 | strongest retained | 4.12 | 3.734 | −4.65 |  | Oc1cc(O)c(-c2nnc(-c3ccc(OC(F)(F)F)cc3)s2)cc1Cl [Compound 10] |  | 
21 |  | 2.51 | 2.537 | −3.494 |  | Oc1ccc(-c2nnc(-c3ccccc3)s2)c(O)c1 [Compound 1] |  | 
22 |  | 3.21 | 3.059 | −3.931 |  | Oc1ccc(-c2nnc(Nc3cccc4ccccc34)s2)c(O)c1 [Compound 16] |  | 
23 |  | 3.13 | 3.002 | −3.885 |  | Oc1ccc(-c2nnc(-c3ccccc3F)s2)c(O)c1 [Compound 3] |  | 
24 |  | 1.66 | 1.907 | −3.171 | weakest retention | Oc1ccc(-c2nnc(-c3ccc(O)c(O)c3)s2)c(O)c1 [Compound 7] |  | 
25 |  | 3.13 | 3 | −3.87 |  | Cc1cccc(-c2nnc(-c3ccc(O)cc3O)s2)c1 [Compound 2] |  | 
